# Experimental data: patent US20230026696A1, “TRPV4 RECEPTOR LIGANDS” (UNIVERSITY OF UTAH RESEARCH FOUNDATION, priority 2019, published 2023)
# pIC50: −log10 of the molar value.
# Columns and labels:
# [1] = test system: intraocular pressure (IOP); assay: In vivo tonometric IOP assay in microbead mouse model of ocular hypertension; details: FIG. 2 right panel; P<0.01 / P<0.001, two-way ANOVA
# Description: FIG. 1 is a graph showing the effect that two concentrations of topical compound 11 (0.01% and 0.1%), 0.5% timolol, and control PBS had on IOP in the microbead (MB) mouse model of ocular hypertension (N=3 separate experiments, with 7-10 mice per experimental cohort). Error bars=±S.E.M. Ocular hypertension in the mouse model of primary open angle glaucoma (POAG) was induced with intracameral injection of polystyrene microbeads. Antagonist stock solutions (10 mM) were prepared in DMSO, the final concentrations were made in PBS diluted to <0.0001% DMSO.
# FIG. 2 is a bar chart showing the cumulative data for pre-IOP elevation cohorts of mouse eyes (N≥3 separate experiments, with 7-10 mice per experimental cohort). Left panel: the IOP data are plotted as % of the control value of the timolol-treated eye cohort. Middle panel: MB injection elevated IOP in all experimental cohorts.
# A tonometric assay was used to measured IOP changes in mice models of ocular hypertension over a period of weeks following topical application of the compounds.
# To prepare the mice models of ocular hypertension, mice were anesthetized with an intraperitoneal (IP) injection of ketamine/xylazine (90 mg/10 mg/kg of body weight). Eye drops of 0.5% proparacaine hydrochloride with 1% tropicamide ophthalmic solution (Bausch & Lomb) were applied to numb and dilate the eyes of the mice. IOP was elevated in the ipsilateral eye by injecting 2 μl of polystyrene microbeads (7.8 μm FluoSpheres; Bangs Laboratories) with a Hamilton syringe into the anterior chamber over 60 seconds. The contralateral eye was injected with phosphate buffered saline (PBS).
# A rebound tonometer was used to measure IOP at 1, 2, 6 and 10 hours post-injection after topical administration of Compounds 11 and 52 and timolol, a known medication for treatment of IOP associated with ocular hypertension and glaucoma. The IOP was determined from the means of 10 to 20 readings, following the protocol described in Ryskamp et al., Sci Rep 6:30583, 2016. […]
# TRPV1 = target: T1, TRPV1 (Homo sapiens, UniProt Q8NER1); assay: Selectivity Ca2+ flux assay, TRPV1 stably overexpressed in human lung epithelial (BEAS-2B) cells; type: cell-based; details: agonist nonivamide (5 μM)
# T1 construct: expressed in transfected cells
# T1 sequence (Q8NER1 whole entry): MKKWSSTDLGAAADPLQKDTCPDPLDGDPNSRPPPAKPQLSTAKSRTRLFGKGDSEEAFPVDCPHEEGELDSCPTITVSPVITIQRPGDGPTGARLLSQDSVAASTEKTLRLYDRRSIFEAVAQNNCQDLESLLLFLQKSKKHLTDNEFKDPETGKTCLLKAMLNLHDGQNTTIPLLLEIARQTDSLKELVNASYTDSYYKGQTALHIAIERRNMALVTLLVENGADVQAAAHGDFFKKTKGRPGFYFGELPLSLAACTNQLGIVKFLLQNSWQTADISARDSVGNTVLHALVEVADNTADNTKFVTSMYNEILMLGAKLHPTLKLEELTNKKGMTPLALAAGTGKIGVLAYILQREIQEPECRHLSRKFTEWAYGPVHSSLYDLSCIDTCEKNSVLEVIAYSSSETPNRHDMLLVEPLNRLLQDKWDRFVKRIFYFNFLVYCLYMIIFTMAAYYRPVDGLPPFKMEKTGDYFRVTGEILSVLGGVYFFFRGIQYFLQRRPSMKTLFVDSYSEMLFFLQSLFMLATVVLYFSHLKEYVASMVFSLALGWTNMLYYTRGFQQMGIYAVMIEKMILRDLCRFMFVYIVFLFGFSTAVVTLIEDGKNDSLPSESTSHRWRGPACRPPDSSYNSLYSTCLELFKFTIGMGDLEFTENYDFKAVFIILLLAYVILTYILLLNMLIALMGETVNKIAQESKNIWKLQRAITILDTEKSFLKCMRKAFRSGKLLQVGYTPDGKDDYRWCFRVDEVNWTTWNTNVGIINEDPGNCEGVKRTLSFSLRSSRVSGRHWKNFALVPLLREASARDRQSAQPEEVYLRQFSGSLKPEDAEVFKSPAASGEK
# Description: To determine selectivity of the various test compounds for TRPV4, select compounds with activity in the TRPV4 fluorometric cell-based Ca^2+ flux assays were also tested for inhibition of human TRPA1 stably over-expressed in HEK-293 cells, TRPM8 stably over-expressed in HEK-293 cells, TRPV3 stably over-expressed in HEK-293 cells, and TRPV1 stably overexpressed in human lung epithelial (BEAS-2B) cells. The assays were conducted substantially as described above for HEK-293 cells that stably overexpress TRPV4, although for TRPV1, the BEAS-2B cells were maintained in LHC-9 media containing Geneticin (300 μg/mL) and were loaded with Fluo-4AM at room temperature. The agonist for TRPA1 was 2,4-ditert butylphenol (50 μM), for TRPM8 was icilin (50 μM), for TRPV3 was carvacrol (300 μM), and for TRPV1 was nonivamide (5 μM). All other aspects of the assay described above were the same.
# human TRPV4 = target: T2, human TRPV4 (Homo sapiens, UniProt Q9HBA0); assay: Fluorometric cell-based Ca2+ flux assay, HEK-293 cells stably overexpressing human TRPV4; details: for pIC50: HEK-293 stably overexpressing human TRPV4, agonist GSK1016790A 30 nM
# T2 construct: expressed in transfected cells
# T2 sequence (Q9HBA0 whole entry): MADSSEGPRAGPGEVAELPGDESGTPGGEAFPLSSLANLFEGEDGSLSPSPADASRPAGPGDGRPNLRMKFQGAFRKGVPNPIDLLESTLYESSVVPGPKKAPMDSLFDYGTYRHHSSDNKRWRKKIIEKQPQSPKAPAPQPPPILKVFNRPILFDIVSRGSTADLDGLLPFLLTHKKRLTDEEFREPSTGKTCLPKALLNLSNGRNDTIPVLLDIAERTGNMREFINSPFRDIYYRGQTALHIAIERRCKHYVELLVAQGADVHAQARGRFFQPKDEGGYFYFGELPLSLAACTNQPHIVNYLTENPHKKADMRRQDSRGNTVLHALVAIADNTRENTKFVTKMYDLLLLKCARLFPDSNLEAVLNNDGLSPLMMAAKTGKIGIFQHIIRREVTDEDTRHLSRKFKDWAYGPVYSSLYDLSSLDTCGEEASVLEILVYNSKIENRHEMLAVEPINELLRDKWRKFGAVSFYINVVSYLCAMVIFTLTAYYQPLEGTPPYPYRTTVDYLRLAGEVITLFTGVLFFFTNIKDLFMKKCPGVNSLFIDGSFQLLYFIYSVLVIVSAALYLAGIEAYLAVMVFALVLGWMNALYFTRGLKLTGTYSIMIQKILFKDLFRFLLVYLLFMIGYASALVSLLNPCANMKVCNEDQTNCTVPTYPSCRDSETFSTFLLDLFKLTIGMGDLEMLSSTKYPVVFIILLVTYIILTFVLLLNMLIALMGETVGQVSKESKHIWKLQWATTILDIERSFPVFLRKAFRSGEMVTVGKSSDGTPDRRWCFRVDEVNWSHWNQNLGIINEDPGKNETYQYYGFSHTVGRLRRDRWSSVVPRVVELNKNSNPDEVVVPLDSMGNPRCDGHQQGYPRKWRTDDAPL
# How it was run: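 HEK-293 cells stably overexpressing human TRPV4, Fluo 4-loaded, pre-incubated 30 min at 37° C with compound, then stimulated with 30 nM GSK1016790A (final). Max ΔF/s over 1 min, media-corrected, expressed relative to no-antagonist control; IC50 from ≥8 concentrations, ≥3 replicates.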
"selectivity for TRPV4 versus TRPA1, TRPM8, TRPV3 and TRPV1 (human TRPV4; comparison of IC50 values)",SMILES,"IOP levels in MB-treated eyes, topical application [1]",pIC50 (TRPV1),pIC50 (human TRPV4)
–,"Cl.N#Cc1ccc(OCC2(N)CN(S(=O)(=O)c3ccc(Cl)cc3Cl)C2)cc1F [Compound 52, 4-((3-Amino-1-((2,4-dichlorophenyl)sulfonyl)azetidin-3-yl)methoxy)-2-fluorobenzonitrile hydrochloride salt]",significantly lowered IOP levels,4.22,7.18 to 7.62
substantially more selective for TRPV4,"N#Cc1ccc(OCC2(CO)CN(S(=O)(=O)c3ccc(Cl)cc3Cl)C2)cc1F [Compound 11, 4-((1-((2,4-Dichlorophenyl)sulfonyl)-3-(hydroxymethyl)azetidin-3-yl)methoxy)-2-fluorobenzonitrile]",significantly lowered IOP levels,4.61,7.21 to 7.28
